US20110027352A1, “COMPOUNDS FOR USE IN THE TREATMENT OF NEUROPATHIC PAIN” (priority 2008, published 2011)
Entries after “also recorded” stand apart in the source; their conditions may differ. Counter-ions that a name gives are not always drawn.

Tests used:
Type in all cases: in vivo, C57BL/6J mice
[1] = tested on: mechanical allodynia of the neuropathic (“Cuff”) mice; assay: Sciatic nerve cuff murine model of neuropathic pain, von Frey filament test in neuropathic (Cuff) mice; conditions: for Allodynia in neuropathic (Cuff) animals after chronic treatment, recapitulation (FIG. 25): chronic treatment (14-21 days), doses and modes as in examples 7, 9 to 14 and 20 (formoterol 0.5 mg/kg, terbutalin 5 mg/kg); for Mechanical allodynia of Cuff mice after the first (acute) injection: mice neuropathic for 2 weeks; for Effect on neuropathic allodynia acutely after the first injection, summary statement: first injection of the agonist, doses as in examples 7, 9, 11 and 15
Protocol: (§1) The experiments were carried out on adult male mice. The pharmacological experiments were carried out using C57BL/6J mice (3-to-6 weeks old on their arrival, Charles River, L'Arbresle, France).
All the experiments began with mice that were 6-to-9 weeks old. […] For all the other experiments, the mice were combined at four to five per cage and kept under alternating 12-hour day/night (light at 6 am) with food and water ad libitum.
(§2) The model is obtained by placing a polyethylene cuff around the main branch of the right sciatic nerve of each mouse. Before any surgical procedure, the mice were assigned to the various experimental groups in such a way that the baseline mechanical nociception threshold and the weight are equivalent between the various groups. The surgical procedure was carried out under ketamin-xylazin anesthesia (ketamin: 17 mg/ml, xylazin 2.5 mg/ml, intraperitoneal injection in a proportion of 4 ml/kg) (limited liability company Centravet, Taden, France). The common branch of the sciatic nerve was exposed and a section 2 mm long of a hollow PE-20 polyethylene tube (“Harvard Apparatus”, Les Ulis, France) was placed around said branch (“Cuff” group). […] Control mice were operated on according to the same procedure, but without placing the cuff (“Sham” group). The experimental groups are made up of at least 4 mice for each control (“Sham”) group and at least 5 mice for each neuropathic (“Cuff”) group.
(§3) The mice are placed in transparent Plexiglas (registered trademark) boxes (7 cm×9 cm×7 cm) placed on a raised grid. Before the test, the mice are allowed to become accustomed to this device for 15 minutes. During the test, the von Frey filaments are applied to the plantar surface of each back foot according to ascending forces (from 0.16 g up to a foot withdrawal response, or up to a maximum of 10 g). Each filament is tested 5 times per foot and the threshold is defined by the presence of 3 or more withdrawals observed over the 5 tests. Before the surgery as described above, the animals were pretested in order to establish their baseline nociceptive response. During the chronic treatment experiments and those of repeated injection of antagonists, the tests are carried out in the mornings before the first injection of the day. During the acute agonist injection experiments, the tests are carried out after the first injection according to the time course as presented on the graphs.
The surgery for installing the cuff corresponds to day 0.
(§4) For all the treatments carried out by injection, said injections were given intraperitoneally in a volume of 50 microL per 10 mg of body weight.

[2] = tested on: mechanical allodynia of the neuropathic (“Cuff”) mice; assay: Cotreatment with adrenoreceptor antagonists in Cuff mice relieved by chronic nortriptylin or beta-agonist treatment, von Frey test; conditions: for Effect of coadministered beta2-adrenoreceptor antagonist ICI 118,551 on the allodynia of agonist-treated Cuff mice: ICI 118,551 2 mg/kg intraperitoneal, after 3 weeks of agonist treatment (doses as in chronic treatment; terbutalin 0.5 mg/kg), 3 to 6 days of cotreatment; for Effect of ICI 118,551 on the therapeutic effect of chronic agonist treatment on neuropathic allodynia, summary statement: chronic treatment with the agonist plus beta2-adrenoreceptor antagonist ICI 118,551; for Blocking of the effect of antidepressants on neuropathic allodynia by repeated antagonist treatment, summary statement: doses as in examples 3 to 6
Protocol: as §2
For the tests, in the examples which follow, the pressure is exerted on the foot of the mice by means of von Frey filaments (Bioseb, Chaville, France) (Benbouzid, M. et al. Biological Psychiatry 63:633-636 (2008) (10) and Benbouzid, M. et al. European Journal of Pain 12:591-599 (2008) (11)). The mice are placed in transparent Plexiglas (registered trademark) boxes (7 cm×9 cm×7 cm) placed on a raised grid. Before the test, the mice are allowed to become accustomed to this device for 15 minutes. During the test, the von Frey filaments are applied to the plantar surface of each back foot according to ascending forces (from 0.16 g up to a foot withdrawal response, or up to a maximum of 10 g). Each filament is tested 5 times per foot and the threshold is defined by the presence of 3 or more withdrawals observed over the 5 tests. Before the surgery as described above, the animals were pretested in order to establish their baseline nociceptive response. During the chronic treatment experiments and those of repeated injection of antagonists, the tests are carried out in the mornings before the first injection of the day. During the acute agonist injection experiments, the tests are carried out after the first injection according to the time course as presented on the graphs.
The procedure for intrathecal (i.t.) injection of the beta2-adrenoreceptor antagonist ICI 118,551 (3 μg in 10 μl) is carried out under halothane gas anesthesia according to the protocol described by Inoue et al. (Nature Medicine 2004, 10:712-718 (12)). These i.t. injections are carried out just before the intraperitoneal injection of salbutamol (2 mg/kg, i.p.). A 27-gauge injection needle connected to a 50 μl Hamilton syringe is inserted, between the L5 and L6 vertebrae, into the subarachnoid space. The correct placement of the needle is verified by the presence of a reflex movement of the tail of the mouse. The mice are pretested before this cotreatment procedure, and then cotreated twice (a morning and the corresponding evening) before being retested the following morning for their mechanical nociceptive sensitivity.

[3] = tested on: nociceptive sensitivity of the mice of the control (“Sham”) group; assay: von Frey filament test in control (Sham) mice operated without cuff; conditions: for Sensitivity of control (Sham) animals under chronic treatment, recapitulation (FIG. 26): chronic treatment (14-21 days), doses and modes as in examples 2, 7, 9 to 14 and 20 (formoterol 0.5 mg/kg, terbutalin 5 mg/kg); for Control (Sham) mice after the first administration: intraperitoneal, first injection; for Nociceptive sensitivity of control (Sham) mice under chronic treatment: repeated injections, doses and modes as for the Cuff mice of the same example
Protocol: as §1, §2, §3, §4

[4] = 0.5 mg/kg, injection twice a day
[5] = antagonist 2 mg/kg intraperitoneal with nortriptylin 5 mg/kg twice a day, after 3 weeks of nortriptylin (metoprolol, ICI 118,551: for 6 days)
[6] = intraperitoneal antagonist, doses as for the Cuff mice of the same example (ICI 118,551 2 mg/kg, yohimbin 2 mg/kg, propranolol 5 mg/kg), with or without cotreatment

SMILES: CC(C)NCC(O)c1ccc(O)c(O)c1 (racemic) [isoprenalin, DL-isoproterenol chloride]
- Mechanical allodynia in neuropathic (Cuff) mice after chronic treatment [1, 4]: completely suppresses the mechanical allodynia
- Allodynia in neuropathic (Cuff) animals after chronic treatment, recapitulation (FIG. 25) [1]: relieve this allodynia; also recorded: causes the neuropathic pain, for example the neuropathic allodynia, to completely disappear
- Effect of coadministered beta2-adrenoreceptor antagonist ICI 118,551 on the allodynia of agonist-treated Cuff mice [2]: causes the allodynia to reappear
- Effect of ICI 118,551 on the therapeutic effect of chronic agonist treatment on neuropathic allodynia, summary statement [2]: blocks the therapeutic effect
- Sensitivity of control (Sham) animals under chronic treatment, recapitulation (FIG. 26) [3]: do not affect the control animals; also recorded: does not aspecifically affect the sensitivity of the control animals

SMILES: COCCc1ccc(OCC(O)CNC(C)C)cc1 (racemic) [metoprolol, (+/−)-metoprolol (+)-tartrate]
- Effect of antagonist cotreatment on the therapeutic benefit of nortriptylin in Cuff mice [2, 5]: has no influence on the therapeutic benefit
- Blocking of the effect of antidepressants on neuropathic allodynia by repeated antagonist treatment, summary statement [2]: only the beta2-adrenoreceptor antagonist blocks the effect of antidepressants

SMILES: CC(C)NCC(O)COc1cccc2ccccc12 (racemic) [propranolol, (+/−)-propranolol hydrochloride]
- Effect of antagonist cotreatment on the therapeutic benefit of nortriptylin in Cuff mice ([2]; antagonist 5 mg/kg intraperitoneal with nortriptylin 5 mg/kg twice a day, after 3 weeks of nortriptylin): causes the allodynia to reappear in a few days
- Blocking of the effect of antidepressants on neuropathic allodynia by repeated antagonist treatment, summary statement [2]: blocks the therapeutic effect of antidepressants
- Nociceptive sensitivity of control (Sham) mice under antagonist injections ([3]; intraperitoneal antagonist, doses as for the Cuff mice of the same example (ICI 118,551 2 mg/kg, yohimbin 2 mg/kg, propranolol 5 mg/kg), with or without cotreatment, hydrochloride): not affected; also recorded: does not affect the response of the control animals

SMILES: CC(C)NCC(O)c1ccc(NS(C)(=O)=O)cc1.Cl (racemic) [sotatol, (+/−) sotatol hydrochloride]
- Effect of antagonist cotreatment with nortriptylin, compared with propranolol ([2]; 2 mg/kg in place of propranolol 5 mg/kg, same results = as propranolol (allodynia reappears in Cuff, Sham not affected)): same results

SMILES: Cc1ccc(OCC(O)C(C)NC(C)C)c2c1CCC2 (stereo not shown) [ICI 118,551]
- Time to reappearance of allodynia after the beginning of the cotreatment with nortriptylin ([2]; ICI 118,551 2 mg/kg intraperitoneal coadministered with nortriptylin, Cuff mice): ≤ 48 h
- Effect of antagonist cotreatment on the therapeutic benefit of nortriptylin in Cuff mice [2, 5]: leads to reappearance of the neuropathic allodynia
- Blocking of the effect of antidepressants on neuropathic allodynia by repeated antagonist treatment, summary statement [2]: blocks the effect of antidepressants
- Nociceptive sensitivity of control (Sham) mice under antagonist injections ([3]; ICI 118,551 intraperitoneal (2 mg/kg) or intrathecal (3 μg in 10 μl), with salbutamol): not affected
- Nociceptive sensitivity of control (Sham) mice under antagonist injections [3, 6]: not affected; also recorded: does not affect the response of the control animals

SMILES: CCc1ccccc1OC[C@@H](O)CN[C@H]1CCCc2ccccc21 [SR59230A]
- Effect of antagonist cotreatment on the therapeutic benefit of nortriptylin in Cuff mice ([2]; antagonist 2.5 mg/kg intraperitoneal for 6 days with nortriptylin, after 3 weeks of nortriptylin): has no influence on the therapeutic benefit
- Blocking of the effect of antidepressants on neuropathic allodynia by repeated antagonist treatment, summary statement [2]: only the beta2-adrenoreceptor antagonist blocks the effect of antidepressants

SMILES: CC(C)NCC(O)COc1ccc(CC(N)=O)cc1 (stereo not shown) [atenolol]
- Effect of antagonist cotreatment with nortriptylin, compared with metoprolol ([2]; 5 mg/kg in place of metoprolol 2 mg/kg, same results = as metoprolol (no influence on the therapeutic benefit)): same results

SMILES: CN(C)C(=O)Oc1cc(OC(=O)N(C)C)cc(C(O)CNC(C)(C)C)c1 (stereo not shown) [bambuterol]
- Mechanical allodynia in neuropathic (Cuff) mice after chronic treatment [1, 4]: completely suppresses the mechanical allodynia
- Mechanical allodynia of Cuff mice after the first (acute) injection ([1]; 0.5 mg/kg, intraperitoneal): has no anti-allodynia effect
- Allodynia in neuropathic (Cuff) animals after chronic treatment, recapitulation (FIG. 25) [1]: relieve this allodynia; also recorded: causes the neuropathic pain, for example the neuropathic allodynia, to completely disappear
- Effect on neuropathic allodynia acutely after the first injection, summary statement [1]: not observed acutely after the first injection
- Effect of coadministered beta2-adrenoreceptor antagonist ICI 118,551 on the allodynia of agonist-treated Cuff mice [2]: causes the allodynia to reappear
- Effect of ICI 118,551 on the therapeutic effect of chronic agonist treatment on neuropathic allodynia, summary statement [2]: blocks the therapeutic effect
- Control (Sham) mice after the first administration ([3]; bambuterol 0.5 mg/kg): unaffected
- Sensitivity of control (Sham) animals under chronic treatment, recapitulation (FIG. 26) [3]: do not affect the control animals; also recorded: does not aspecifically affect the sensitivity of the control animals
- Nociceptive sensitivity of control (Sham) mice under chronic treatment [3]: not affected

SMILES: CC(C)(C)NCC(O)c1cc(Cl)c(N)c(Cl)c1 (stereo not shown) [clenbuterol]
- Mechanical allodynia of Cuff mice after the first (acute) injection ([1]; 0.3 mg/kg, intraperitoneal): has no effect on the mechanical allodynia
- Mechanical allodynia in neuropathic (Cuff) mice after chronic treatment ([1]; 0.3 mg/kg, intraperitoneal, twice a day): completely suppresses the mechanical allodynia
- Allodynia in neuropathic (Cuff) animals after chronic treatment, recapitulation (FIG. 25) [1]: relieve this allodynia; also recorded: causes the neuropathic pain, for example the neuropathic allodynia, to completely disappear
- Effect on neuropathic allodynia acutely after the first injection, summary statement [1]: not observed acutely after the first injection
- Effect of coadministered beta2-adrenoreceptor antagonist ICI 118,551 on the allodynia of agonist-treated Cuff mice [2]: causes the allodynia to reappear
- Effect of ICI 118,551 on the therapeutic effect of chronic agonist treatment on neuropathic allodynia, summary statement [2]: blocks the therapeutic effect
- Sensitivity of control (Sham) animals under chronic treatment, recapitulation (FIG. 26) [3]: do not affect the control animals; also recorded: does not aspecifically affect the sensitivity of the control animals
- Control (Sham) mice after the first administration ([3]; clenbuterol 0.3 mg/kg): unaffected
- Nociceptive sensitivity of control (Sham) mice under chronic treatment [3]: not affected

SMILES: CC(Cc1ccc(O)cc1)NCC(O)c1cc(O)cc(O)c1 (stereo not shown) [fenoterol]
- Mechanical allodynia of Cuff mice after the first (acute) injection ([1]; 0.7 mg/kg, intraperitoneal): has no effect on the mechanical allodynia
- Mechanical allodynia in neuropathic (Cuff) mice after chronic treatment ([1]; 0.7 mg/kg, twice a day): completely suppresses the mechanical allodynia
- Allodynia in neuropathic (Cuff) animals after chronic treatment, recapitulation (FIG. 25) [1]: relieve this allodynia; also recorded: causes the neuropathic pain, for example the neuropathic allodynia, to completely disappear
- Effect on neuropathic allodynia acutely after the first injection, summary statement [1]: not observed acutely after the first injection
- Effect of coadministered beta2-adrenoreceptor antagonist ICI 118,551 on the allodynia of agonist-treated Cuff mice [2]: causes the allodynia to reappear
- Effect of ICI 118,551 on the therapeutic effect of chronic agonist treatment on neuropathic allodynia, summary statement [2]: blocks the therapeutic effect
- Sensitivity of control (Sham) animals under chronic treatment, recapitulation (FIG. 26) [3]: do not affect the control animals; also recorded: does not aspecifically affect the sensitivity of the control animals
- Nociceptive sensitivity of control (Sham) mice under chronic treatment [3]: not affected

SMILES: CC(C)NCC(O)c1cc(O)cc(O)c1 (stereo not shown) [metaproterenol]
- Mechanical allodynia in neuropathic (Cuff) mice after chronic treatment ([1]; 1 mg/kg, injection twice a day): completely suppresses the mechanical allodynia
- Mechanical allodynia in neuropathic (Cuff) mice after chronic application of a gel to the skin ([1]; 0.1 ml of gel twice a day, 1 mg/ml metaproterenol hemisulfate in 5% hydroxyethylcellulose gel, from 8 days after surgery): relieves the mechanical allodynia; also recorded: relieves neuropathic allodynia
- Allodynia in neuropathic (Cuff) animals after chronic treatment, recapitulation (FIG. 25) [1]: relieve this allodynia; also recorded: causes the neuropathic pain, for example the neuropathic allodynia, to completely disappear
- Sensitivity of control (Sham) animals under chronic treatment, recapitulation (FIG. 26) [3]: do not affect the control animals; also recorded: does not aspecifically affect the sensitivity of the control animals

SMILES: CCC(NC(C)C)C(O)c1ccc(O)c2[nH]c(=O)ccc12 (stereo not shown) [procaterol]
- Mechanical allodynia in neuropathic (Cuff) mice after chronic treatment ([1]; 0.8 mg/kg, injection twice a day): completely suppresses the mechanical allodynia
- Allodynia in neuropathic (Cuff) animals after chronic treatment, recapitulation (FIG. 25) [1]: relieve this allodynia; also recorded: causes the neuropathic pain, for example the neuropathic allodynia, to completely disappear
- Effect of ICI 118,551 on the therapeutic effect of chronic agonist treatment on neuropathic allodynia, summary statement [2]: blocks the therapeutic effect
- Sensitivity of control (Sham) animals under chronic treatment, recapitulation (FIG. 26) [3]: do not affect the control animals; also recorded: does not aspecifically affect the sensitivity of the control animals

SMILES: CC(NCCc1ccc(O)cc1)C(O)c1ccc(O)cc1 (stereo not shown) [ritodrin]
- Mechanical allodynia in neuropathic (Cuff) mice after chronic treatment ([1]; 10 mg/kg, injection twice a day): completely suppresses the mechanical allodynia
- Allodynia in neuropathic (Cuff) animals after chronic treatment, recapitulation (FIG. 25) [1]: relieve this allodynia; also recorded: causes the neuropathic pain, for example the neuropathic allodynia, to completely disappear
- Effect of coadministered beta2-adrenoreceptor antagonist ICI 118,551 on the allodynia of agonist-treated Cuff mice [2]: causes the allodynia to reappear
- Effect of ICI 118,551 on the therapeutic effect of chronic agonist treatment on neuropathic allodynia, summary statement [2]: blocks the therapeutic effect
- Sensitivity of control (Sham) animals under chronic treatment, recapitulation (FIG. 26) [3]: do not affect the control animals; also recorded: does not aspecifically affect the sensitivity of the control animals

SMILES: COC(=O)[C@@H]1[C@H]2C[C@H]3c4[nH]c5ccccc5c4CCN3C[C@@H]2CC[C@@H]1O [yohimbin]
- Effect of antagonist cotreatment on the therapeutic benefit of nortriptylin in Cuff mice [2, 5]: has no influence on the therapeutic benefit
- Blocking of the effect of antidepressants on neuropathic allodynia by repeated antagonist treatment, summary statement [2]: ineffective in blocking the analgesic effect of antidepressants
- Nociceptive sensitivity of control (Sham) mice under antagonist injections [3, 6]: not affected
